# Where two headings read alike, the source gives them in different places. Marks after values point to notes of the source that are not given here.
# Experiments:
# Test in all cases: MIC, broth microdilution
# 96 P. aeruginosa = format: cell-based, Pseudomonas aeruginosa; conditions: Pseudomonas aeruginosa (96); for MIC50: read-out: MIC50; for MIC90: read-out: MIC90
# [1] = system: serine-carbapenemase-producing isolates (Enterobacterales); format: cell-based; conditions: Enterobacterales with serine-carbapenemases (80); for CLSI MIC interpretation I (intermediate) / CLSI MIC interpretation R (resistant) / CLSI MIC interpretation S (susceptible): CLSI breakpoints, marked c: breakpoints for β-lactam alone, tigecycline: FDA breakpoints; for MIC50: read-out: MIC50; for MIC90: read-out: MIC90
# [2] = system: 55 isolates of A. baumannii; format: cell-based, Acinetobacter baumannii; conditions: Acinetobacter baumannii (55); for MIC50: read-out: MIC50; for MIC90: read-out: MIC90
# [3] = system: MEM-nonsusceptible Enterobacterales with metallo-carbapenemases; format: cell-based; conditions: MEM-nonsusceptible Enterobacterales with metallo-carbapenemases (55), cefiderocol 54 isolates; for MIC50: read-out: MIC50; for MIC90: read-out: MIC90
# [4] = system: 207 Enterobacterales including carbapenem-resistant isolates; format: cell-based; conditions: for CLSI MIC interpretation I (intermediate) / CLSI MIC interpretation R (resistant) / CLSI MIC interpretation S (susceptible): CLSI breakpoints, marked c: breakpoints for β-lactam alone, tigecycline: FDA breakpoints; for MIC50: read-out: MIC50; for MIC90: read-out: MIC90
# [5] = system: MEM-, imipenem/relebactam-, and ceftolozane/tazobactam-nonsusceptible P. aeruginosa; format: cell-based, Pseudomonas aeruginosa; conditions: for CLSI MIC interpretation I (intermediate) / CLSI MIC interpretation R (resistant) / CLSI MIC interpretation S (susceptible): marked c: breakpoints for β-lactam alone; for MIC50 / MIC90: Pseudomonas aeruginosa; for MIC50: read-out: MIC50; for MIC90: read-out: MIC90
# [6] = system: MEM-nonsusceptible Enterobacterales; format: cell-based; conditions: MEM-nonsusceptible Enterobacterales (127), cefiderocol 126 isolates; for CLSI MIC interpretation I (intermediate) / CLSI MIC interpretation R (resistant) / CLSI MIC interpretation S (susceptible): CLSI breakpoints, marked c: breakpoints for β-lactam alone, tigecycline: FDA breakpoints; for MIC50: read-out: MIC50; for MIC90: read-out: MIC90
# [7] = system: MEM-nonsusceptible Enterobacterales with serine-carbapenemases; format: cell-based; conditions: MEM-nonsusceptible Enterobacterales with serine-carbapenemases (58); for CLSI MIC interpretation I (intermediate) / CLSI MIC interpretation R (resistant) / CLSI MIC interpretation S (susceptible): CLSI breakpoints, marked c: breakpoints for β-lactam alone, tigecycline: FDA breakpoints; for MIC50: read-out: MIC50; for MIC90: read-out: MIC90
# [8] = system: MBL-producing isolates (Enterobacterales); format: cell-based; conditions: for CLSI MIC interpretation I (intermediate) / CLSI MIC interpretation R (resistant) / CLSI MIC interpretation S (susceptible): CLSI breakpoints, marked c: breakpoints for β-lactam alone, tigecycline: FDA breakpoints; for MIC50: read-out: MIC50; for MIC90: read-out: MIC90
# [9] = CLSI breakpoints, marked c: breakpoints for β-lactam alone
# [10] = fixed concentration (μg/mL) in label
# [11] = CLSI breakpoints, marked c: breakpoints for β-lactam alone, tigecycline: FDA breakpoints
# [12] = All Enterobacterales (207), cefiderocol 205 isolates
# [13] = Imipenem/relebactam-nonsusceptible Pseudomonas aeruginosa (43), CLSI breakpoints
# [14] = MEM-nonsusceptible Pseudomonas aeruginosa (76), CLSI breakpoints
# [15] = Imipenem/relebactam-nonsusceptible Pseudomonas aeruginosa (43), fixed concentration (μg/mL) in label
# [16] = MEM-nonsusceptible Pseudomonas aeruginosa (76), fixed concentration (μg/mL) in label
# [17] = Enterobacterales with metallo-carbapenemases (74), cefiderocol 73 isolates
# [18] = Enterobacterales with metallo-carbapenemases (74), cefiderocol 73 isolates, fixed concentration (μg/mL) in label
smiles,measurement,setting,value
C[C@H]1COc2c(N3CCN(C)CC3)c(F)cc3c(=O)c(C(=O)O)cn1c23 [Levofloxacin],CLSI MIC interpretation I (intermediate),96 P. aeruginosa; [9],4.2%
same,CLSI MIC interpretation R (resistant),96 P. aeruginosa; [9],81.3%
same,CLSI MIC interpretation S (susceptible),96 P. aeruginosa; [9],14.6%
same,MIC50,96 P. aeruginosa; [10],32 µg/mL
same,MIC90,96 P. aeruginosa; [10],64 µg/mL
same,CLSI MIC interpretation I (intermediate),[1],1.3%
same,CLSI MIC interpretation R (resistant),[1],71.3%
same,CLSI MIC interpretation S (susceptible),[1],27.5%
same,MIC50,[1]; [10],16 µg/mL
same,MIC90,[1]; [10],> 64 µg/mL
same,CLSI MIC interpretation I (intermediate),[2]; [9],10.9%
same,CLSI MIC interpretation R (resistant),[2]; [9],89.1%
same,CLSI MIC interpretation S (susceptible),[2]; [9],0%
same,MIC50,[2]; [10],16 µg/mL
same,MIC90,[2]; [10],64 µg/mL
same,CLSI MIC interpretation I (intermediate),[3]; [11],5.5%
same,CLSI MIC interpretation S (susceptible),[3]; [11],5.5%
same,MIC50,[3]; [10],32 µg/mL
same,MIC90,[3]; [10],> 64 µg/mL
same,CLSI MIC interpretation I (intermediate),[4]; [12],3.9%
same,CLSI MIC interpretation R (resistant),[4]; [12],72%
same,CLSI MIC interpretation S (susceptible),[4]; [12],24.2%
same,MIC50,[4],16 µg/mL
same,MIC90,[4],64 µg/mL
same,CLSI MIC interpretation (%) I,"[5]; I, intermediate (including susceptible dose-dependent), CLSI breakpoints, last subgroup of Table 2",2.2%
same,CLSI MIC interpretation I (intermediate),[5]; [13],0%
same,CLSI MIC interpretation R (resistant),[5]; [13],100%
same,CLSI MIC interpretation S (susceptible),[5]; [13],0%
same,CLSI MIC interpretation I (intermediate),[5]; [14],1.3%
same,CLSI MIC interpretation R (resistant),[5]; [14],89.5%
same,CLSI MIC interpretation S (susceptible),[5]; [14],9.2%
same,MIC50,[5]; [15],32 µg/mL
same,MIC90,[5]; [15],> 64 µg/mL
same,MIC50,[5]; [16],32 µg/mL
same,MIC90,[5]; [16],> 64 µg/mL
same,MIC50,"[5]; Table 2, broth microdilution",32 µg/mL
same,MIC90,"[5]; Table 2, broth microdilution",64 µg/mL
same,CLSI MIC interpretation (%) R,"[5]; R, resistant, CLSI breakpoints, last subgroup of Table 2",91.1%
same,CLSI MIC interpretation (%) S,"[5]; S, susceptible, CLSI breakpoints, last subgroup of Table 2",6.7%
same,CLSI MIC interpretation I (intermediate),[6],2.4%
same,CLSI MIC interpretation R (resistant),[6],79.5%
same,CLSI MIC interpretation S (susceptible),[6],18.1%
same,MIC50,[6]; [10],32 µg/mL
same,MIC90,[6]; [10],64 µg/mL
same,CLSI MIC interpretation I (intermediate),[7],0%
same,CLSI MIC interpretation R (resistant),[7],75.9%
same,CLSI MIC interpretation S (susceptible),[7],24.1%
same,MIC50,[7]; [10],32 µg/mL
same,MIC90,[7]; [10],64 µg/mL
same,CLSI MIC interpretation I (intermediate),[8]; [17],6.8%
same,CLSI MIC interpretation R (resistant),[8]; [17],81.1%
same,CLSI MIC interpretation S (susceptible),[8]; [17],12.2%
same,MIC50,[8]; [18],32 µg/mL
same,MIC90,[8]; [18],> 64 µg/mL
CN(C)c1cc(NC(=O)CNC(C)(C)C)c(O)c2c1C[C@H]1C[C@H]3[C@H](N(C)C)C(O)=C(C(N)=O)C(=O)[C@@]3(O)C(O)=C1C2=O [tigecycline],MIC Range,96 P. aeruginosa; [10],0.5 to 16 µg/mL
same,MIC50,96 P. aeruginosa; [10],4 µg/mL
same,MIC90,96 P. aeruginosa; [10],16 µg/mL
same,CLSI MIC interpretation I (intermediate),[1],3.8^d %
same,CLSI MIC interpretation R (resistant),[1],0.0^d %
same,CLSI MIC interpretation S (susceptible),[1],96.3^d %
same,MIC Range,[1]; [10],0.12 to 4 µg/mL
same,MIC50,[1]; [10],1 µg/mL
same,MIC90,[1]; [10],2 µg/mL
same,MIC Range,[2]; [10],0.25 to 2 µg/mL
same,MIC50,[2]; [10],1 µg/mL
same,MIC90,[2]; [10],1 µg/mL
same,CLSI MIC interpretation I (intermediate),[3]; [11],10.9^d %
same,CLSI MIC interpretation R (resistant),[3]; [11],0.0^d %
same,CLSI MIC interpretation S (susceptible),[3]; [11],89.1^d %
same,MIC Range,[3]; [10],0.12 to 4 µg/mL
same,MIC50,[3]; [10],1 µg/mL
same,MIC90,[3]; [10],4 µg/mL
same,CLSI MIC interpretation I (intermediate),[4]; [12],4.3^d %
same,CLSI MIC interpretation R (resistant),[4]; [12],0.5^d %
same,CLSI MIC interpretation S (susceptible),[4]; [12],95.2^d %
same,MIC Range,"[4]; All Enterobacterales (207), cefiderocol 205 isolates, fixed concentration (μg/mL) in label",0.12 to 16 µg/mL
same,MIC50,[4],0.5 µg/mL
same,MIC90,[4],2 µg/mL
same,MIC Range,[5]; [15],1 to 16 µg/mL
same,MIC Range,[5]; [16],1 to 16 µg/mL
same,MIC50,[5]; [15],4 µg/mL
same,MIC90,[5]; [15],16 µg/mL
same,MIC50,[5]; [16],4 µg/mL
same,MIC90,[5]; [16],16 µg/mL
same,MIC50,"[5]; Table 2, broth microdilution",4 µg/mL
same,MIC90,"[5]; Table 2, broth microdilution",16 µg/mL
same,MIC Range,"[5]; last subgroup of Table 2 (heading not shown; 45 isolates by the percentages, ceftolozane/tazobactam 0% S), broth microdilution",1 to 16 µg/mL
same,CLSI MIC interpretation I (intermediate),[6],5.5^d %
same,CLSI MIC interpretation R (resistant),[6],0.8^d %
same,CLSI MIC interpretation S (susceptible),[6],93.7^d %
same,MIC Range,[6]; [10],0.12 to 16 µg/mL
same,MIC50,[6]; [10],1 µg/mL
same,MIC90,[6]; [10],2 µg/mL
same,CLSI MIC interpretation I (intermediate),[7],1.7^d %
same,CLSI MIC interpretation R (resistant),[7],0.0^d %
same,CLSI MIC interpretation S (susceptible),[7],98.3^d %
same,MIC Range,[7]; [10],0.12 to 4 µg/mL
same,MIC50,[7]; [10],1 µg/mL
same,MIC90,[7]; [10],2 µg/mL
same,CLSI MIC interpretation I (intermediate),[8]; [17],8.1^d %
same,CLSI MIC interpretation R (resistant),[8]; [17],0.0^d %
same,CLSI MIC interpretation S (susceptible),[8]; [17],91.9^d %
same,MIC Range,[8]; [18],0.12 to 4 µg/mL
same,MIC50,[8]; [18],0.5 µg/mL
same,MIC90,[8]; [18],2 µg/mL
same,MIC90,"[8]; MBL-producing isolates, comparators",≤ 4 µg/mL
